# Where two headings read alike, the source gives them in different places.
# Target: T1, androgen receptor (Rattus norvegicus, UniProt P15207)
# T1 construct: from tissue; host or cells: ventral prostate cytosol of gonadectomized male Sprague-Dawley rats
# T1 sequence (P15207 1-902): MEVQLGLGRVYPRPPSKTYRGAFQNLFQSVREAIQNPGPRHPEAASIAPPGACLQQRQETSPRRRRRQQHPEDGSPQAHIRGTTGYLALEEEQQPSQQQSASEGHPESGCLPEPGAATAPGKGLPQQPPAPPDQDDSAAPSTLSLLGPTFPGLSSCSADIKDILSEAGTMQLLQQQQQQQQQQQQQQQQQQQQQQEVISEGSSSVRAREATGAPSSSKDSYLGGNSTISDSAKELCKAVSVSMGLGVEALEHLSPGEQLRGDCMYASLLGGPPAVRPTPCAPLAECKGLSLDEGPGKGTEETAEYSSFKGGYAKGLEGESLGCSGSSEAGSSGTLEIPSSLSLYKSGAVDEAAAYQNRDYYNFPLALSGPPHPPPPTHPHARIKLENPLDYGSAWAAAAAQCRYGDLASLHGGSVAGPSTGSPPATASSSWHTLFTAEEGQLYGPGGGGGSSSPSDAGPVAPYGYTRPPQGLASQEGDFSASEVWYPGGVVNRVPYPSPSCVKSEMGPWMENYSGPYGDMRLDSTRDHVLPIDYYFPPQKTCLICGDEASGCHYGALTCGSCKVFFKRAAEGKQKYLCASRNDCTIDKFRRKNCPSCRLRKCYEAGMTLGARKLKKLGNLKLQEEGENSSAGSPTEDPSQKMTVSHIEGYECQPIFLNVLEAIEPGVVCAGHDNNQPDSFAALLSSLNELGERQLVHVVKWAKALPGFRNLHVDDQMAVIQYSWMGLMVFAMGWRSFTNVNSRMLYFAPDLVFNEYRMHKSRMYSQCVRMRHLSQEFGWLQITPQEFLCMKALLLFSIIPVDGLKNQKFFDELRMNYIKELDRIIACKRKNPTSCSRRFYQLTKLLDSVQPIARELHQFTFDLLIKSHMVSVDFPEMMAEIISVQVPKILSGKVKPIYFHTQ
# Experiment: Androgen receptor (AR) assay: inhibition of [3H]R1881 binding, prostate cytosol
# Experimental: The manner in which the percentage of inhibition is determined is described in “Other Tests; D-Androgen Receptor (AR) Assays”. Lower numbers are desirable.
# Male Sprague-Dawley rats (Crl: CD(SD)Br) weighing 200-300 g were obtained from Charles-River Inc. (St-Constant, Québec, Canada). The rats were gonadectomized under general anesthesia (Isoflurane) and killed by cervical dislocation 24 hours later. The ventral prostates were rapidly removed, dissected free from adhering tissue and frozen on dry-ice. Prostates were kept at −80° C. until assay.
# All subsequent steps were performed at 0-4° C. Prostates were homogenized in 5 vol (wt/vol) of buffer A (25 mM Tris-HCl, 1.5 mM EDTA disodium salt, 10 mM α-monothioglycerol, 10% glycerol, and 10 mM sodium molybdate, pH 7.4), using a Polytron PT-10 homogenizer (Brinkman Instruments, Canada) at a setting of 5 for three periods of 10 sec, with intervals of 10 sec for cooling. The homogenate was then centrifuged at 105,000×g for 60 min in a Beckman L5-65 ultracentrifuge (Fullerton, Calif.).
# Androgen binding was measured using the hydroxylapatite assay (HAP). In brief, the radioactive steroid [^3H]R1881 solubilized in ethanol was diluted into buffer A. Aliquots of prostate cytosol preparation (0.1 ml) were then incubated with 8 nM [^3H]R1881 (0.1 ml, ˜200,000 cpm) in the presence or absence of the indicated concentrations of unlabeled compounds (0.1 ml, prepared in buffer A containing 10% ethanol) for 16-18 h at 0-4° C. […] Unbound steroids were separated by incubation for 40 min at 0-4° C. with 0.3 ml HAP prepared in buffer P (50 mM, Tris-HCl, 10 mM KH2PO4, pH 7.4) as follows: 10 g HAP were washed with buffer P until the supernatant reached a pH of 7.4 and then following centrifugation and decantation of the supernatant, 37.5 ml of buffer P were added. After incubation with HAP and 10 minutes of centrifugation at 1,000×g, the pellet was washed 3 times with 1 ml buffer P. Thereafter, the radioactivity was extracted from the pellet by incubation at room temperature for 60 minutes with 1 ml EtOH. After centrifugation, the supernatant was decanted into a scintillation vial and the pellet was extracted again with ethanol.
# [1] = read-out: % Inhibition Androgen Receptor E^−6
# [2] = read-out: % Inhibition Androgen Receptor E^−8
structure (smiles),measurement,setting,value
CC12C=CC(=O)C=C1C=CC1C2CCC2(C)C(=O)C3(CCCCC3)CC12 (stereo not shown) [CS-204],inhibition at 1 µM,E^−6,5%
same,inhibition at 0.01 µM,E^−8,0%
CC1(C)CCC2(CCC3C4CCc5ccccc5C4CCC32C)OC1=O (stereo not shown) [CS-224],inhibition at 1 µM,"Table 4′, E^−6",0%
same,inhibition at 0.01 µM,"Table 4′, E^−8",0%
CC(=O)O[C@]1(C)C(=O)CCC2C3C=C(C)C4=CC(=O)C=C[C@]4(C)C3CC[C@@]21C (stereo partly shown) [CS-237],inhibition at 1 µM,[1],11%
same,inhibition at 0.01 µM,[2],0%
"CSCCOc1ccc2c(c1)CCC1C2CCC2(C)C1CCC21CCCC(=O)O1 [CS-242, 3-Methylthioethyloxy-1,3,5(10)-estratrien-17(R)-spiro-2′-(6′-oxo) Tetrahydropyran]",inhibition at 1 µM,"Table 4′, E^−6",0%
same,inhibition at 0.01 µM,"Table 4′, E^−8",0%
CCC(=O)O[C@]1(C(C)=O)CCC2C3C=C(C)C4=CC(=O)C[C@H](C)[C@]4(C)C3CC[C@@]21C (stereo partly shown) [CS-243],% Inhibition Androgen Receptor,E^−6,33%
same,% Inhibition Androgen Receptor,E^−8,0%
CCCC(=O)OC1(C(C)=O)CCC2C3C=C(C)C4=CC(=O)CC(C)C4(C)C3CCC21C (stereo not shown) [CS-245],% Inhibition Androgen Receptor,E^−6,71%
same,% Inhibition Androgen Receptor,E^−8,5%
"C[C@]12CCC3c4ccc(O)cc4CCC3C1CC[C@@]21CCCC(=O)O1 (stereo partly drawn) [EM-919, 1,3,5(10)-estratrien-3-ol-17(R)-spiro-2′(6′-oxo)tetrahydropyran]",% Inhibition Androgen Receptor *E^−5,"Table 4′, starred values, E^−5",6* %
same,% Inhibition Androgen Receptor *E^−7,"Table 4′, starred values, E^−7",0* %
"COC(=O)CCCC(=O)O[C@]1(C(C)=O)CC[C@H]2[C@@H]3C=C(C)C4=CC(=O)CC[C@]4(C)[C@H]3CC[C@@]21C [EM-1007, 6-Methyl-4,6-pregnadien-17α-ol-3,20-dione 4′-Carbomethoxybutyrate]",% Inhibition Androgen Receptor,E^−6,0%
same,% Inhibition Androgen Receptor,E^−8,0%
CC1CCC2(CCC3C4CCc5ccccc5C4CCC32C)OC1=O (stereo not shown) [EM-1025],inhibition at 1 µM,"Table 4′, E^−6",0%
same,inhibition at 0.01 µM,"Table 4′, E^−8",0%
CCCC(=O)O[C@]1(C)C(=O)CCC2C3C=C(C)C4=CC(=O)CC[C@]4(C)C3CC[C@@]21C (stereo partly shown) [EM-1078],inhibition at 1 µM,[1],83%
same,inhibition at 0.01 µM,[2],7%
CCC[C@@H]1CC2C3C=CC4=CC(=O)CC[C@]4(C)C3CC[C@]2(C)C1=O (stereo partly shown) [EM-1097],inhibition at 1 µM,E^−6,5%
same,inhibition at 0.01 µM,E^−8,0%
CN1C(=O)C=C[C@]2(C)C3CC[C@@]4(C)C(CC[C@@]45CCCC(=O)O5)C3CCC12 (stereo partly shown) [EM-1122-CS],inhibition at 1 µM,"Table 5 column 13, E^−6",8%
same,inhibition at 0.01 µM,"Table 5 column 13, E^−8",1%
"C[C@]12CCC3c4cc([N+](=O)[O-])c(O)cc4CCC3C1CC[C@@]21CCCC(=O)O1 (stereo partly drawn) [EM-1124, 2-Nitro-1,3,5(10)-estraetriene-3-ol-17(R)-spiro-2′-(6′-oxo)tetrahydropyran]",inhibition at 1 µM,"Table 4′, E^−6",7%
same,inhibition at 0.01 µM,"Table 4′, E^−8",1%
CC1(C)CCC2(CCC3C4CCc5cc(O)c([N+](=O)[O-])cc5C4CCC32C)OC1=O (stereo not shown) [EM-1125-CS],inhibition at 1 µM,"Table 4′, E^−6",1%
same,inhibition at 0.01 µM,"Table 4′, E^−8",2%
"CC1CCC2(CCC3C4CCc5cc(O)c([N+](=O)[O-])cc5C4CCC32C)OC1=O [EM-1126, 2-Nitro-1,3,5(10)-estratrien-3-ol-17(R)-spiro-2′-(5′-methyl-6′-oxo)tetrahydropyran]",% Inhibition Androgen Receptor E^−6,"Table 4′, E^−6",10%
same,% Inhibition Androgen Receptor E^−8,"Table 4′, E^−8",2%
"CC1CCC2(CCC3C4CCc5cc(O)c([N+](=O)[O-])cc5C4CCC32C)OC1=O [EM-1131, 2-Nitro-1,3,5(10)-estratrien-3-ol-17(R)-spiro-2′-(5′-methyl-6′-oxo)tetrahydropyran]",% Inhibition Androgen Receptor E^−6,"Table 4′, E^−6",1%
same,inhibition at 0.01 µM,"Table 4′, E^−8",2%
CC1(C)CC[C@@]2(CCC3C4CCc5cc(F)ccc5C4CC[C@@]32C)OC1=O (stereo partly shown) [EM-1157-CS],inhibition at 1 µM,"Table 4′, E^−6",0%
same,inhibition at 0.01 µM,"Table 4′, E^−8",0%
CC(=O)O[C@]1(C(=O)N(C)C)CCC2C3C=C(C)C4=CC(=O)CC[C@]4(C)C3CC[C@@]21C (stereo partly shown) [EM-1159],% Inhibition Androgen Receptor,E^−6,1%
same,% Inhibition Androgen Receptor,E^−8,1%
CCCCN(C)C(=O)[C@@]1(OC(C)=O)CCC2C3C=C(C)C4=CC(=O)CC[C@]4(C)C3CC[C@@]21C (stereo partly shown) [EM-1165],% Inhibition Androgen Receptor,E^−6,1%
same,% Inhibition Androgen Receptor,E^−8,0%
CC12CCC3c4ccc(F)cc4CCC3C1CCC21CCCC(=O)O1 (stereo not shown) [EM-1170-CS],inhibition at 1 µM,"Table 4′, E^−6",1%
same,inhibition at 0.01 µM,"Table 4′, E^−8",0%
CCC[C@]1(F)CC2C3C=CC4=CC(=O)CC[C@]4(C)C3CC[C@]2(C)C1=O (stereo partly shown) [EM-1183],inhibition at 1 µM,E^−6,1%
same,inhibition at 0.01 µM,E^−8,0%
CC(=O)[C@@]1(OC(=O)CCCCF)CCC2C3C=C(C)C4=CC(=O)CC[C@]4(C)C3CC[C@@]21C (stereo partly shown) [EM-1195-CS],% Inhibition Androgen Receptor,E^−6,62%
same,% Inhibition Androgen Receptor,E^−8,1%
CC(C)C[C@@H]1CC2C3C=CC4=CC(=O)CC[C@]4(C)C3CC[C@]2(C)C1=O (stereo partly shown) [EM-1273-CS],inhibition at 1 µM,E^−6,0%
same,inhibition at 0.01 µM,E^−8,0%
COc1ccc(CC(=O)O[C@]2(C(C)=O)CCC3C4C=C(C)C5=CC(=O)C=C[C@]5(C)C4CC[C@@]32C)cc1 (stereo partly shown) [EM-1291],% Inhibition Androgen Receptor,E^−6,0%
same,% Inhibition Androgen Receptor,E^−8,0%
"C[C@]12CCC(=O)C=C1C=C[C@@H]1[C@@H]2CC[C@]2(C)C(=O)C3(CC4CC4C3)C[C@@H]12 (stereo partly shown) [EM-1299, 4,6-Androstadien-3,17-dione-16-spirobicyclo[3′.1′.0′]-hexane]",% Inhibition Androgen Receptor E^−6,E^−6,3%
same,% Inhibition Androgen Receptor E^−8,E^−8,1%
CCS(=O)(=O)Oc1ccc2c(c1)CCC1C2CCC2(C)C1CCC21CCC(C)(C)C(=O)O1 (stereo not shown) [EM-1364-CS],inhibition at 1 µM,"Table 4′, E^−6",0%
same,inhibition at 0.01 µM,"Table 4′, E^−8",0%
CC1(C)CCC2(CCC3C4CCc5cc(OS(C)(=O)=O)ccc5C4CCC32C)OC1=O (stereo not shown) [EM-1365-CS],inhibition at 1 µM,"Table 4′, E^−6",0%
same,inhibition at 0.01 µM,"Table 4′, E^−8",0%
"COCCOc1ccc2c(c1)CCC1C2CCC2(C)C1CCC21CCC(C)(C)C(=O)O1 [EM-1368-CS, 3-Methoxyethoxy-1,3,5(10)-estratrien-17(R)-spiro-2′-(5′,5′-dimethyl-6′-oxo)-tetrahydropyran]",inhibition at 1 µM,"Table 4′, E^−6",0%
same,inhibition at 0.01 µM,"Table 4′, E^−8",0%
"CCOc1ccc2c(c1)CCC1C2CC[C@@]2(C)C1CC[C@@]21CCC(C)(C)C(=O)O1 (stereo partly drawn) [EM-1369, 3-Ethoxy-1,3,5(10)-estratrien-17(R)-spiro-2′-(5′,5′-dimethyl-6′-oxo)-tetrahydropyran]",inhibition at 1 µM,"Table 4′, E^−6",1%
same,inhibition at 0.01 µM,"Table 4′, E^−8",0%
COc1ccc2c(c1)CCC1C2CCC2(C)C1CCC21CCC(C)(C)C(=O)O1 (stereo not shown) [EM-1370],inhibition at 1 µM,"Table 4′, E^−6",2%
same,inhibition at 0.01 µM,"Table 4′, E^−8",3%
COCCOc1cc2c(cc1Cl)C1CCC3(C)C(CCC34CCC(C)(C)C(=O)O4)C1CC2 (stereo not shown) [EM-1371-CS],inhibition at 1 µM,"Table 4′, E^−6",1%
same,inhibition at 0.01 µM,"Table 4′, E^−8",0%
CC1(C)CC[C@@]2(CC[C@H]3[C@@H]4CCc5c(cc(Br)c(O)c5Br)[C@H]4CC[C@@]32C)OC1=O [EM-1382-CS],% Inhibition Androgen Receptor E^−6,"Table 4′, E^−6",0%
same,% Inhibition Androgen Receptor E^−8,"Table 4′, E^−8",0%
COc1c(Br)cc2c(c1Br)CCC1C2CCC2(C)C1CCC21CCC(C)(C)C(=O)O1 (stereo not shown) [EM-1385-CS],inhibition at 1 µM,"Table 4′, E^−6",0%
same,inhibition at 0.01 µM,"Table 4′, E^−8",0%
COc1ccc2c(c1)C(=O)CC1C3CCC4(CCC(C)(C)C(=O)O4)C3(C)CCC21O (stereo not shown) [EM-1386],inhibition at 1 µM,"Table 4′, E^−6",0%
same,inhibition at 0.01 µM,"Table 4′, E^−8",0%
CN(C)CCOc1ccc2c(c1)CCC1C2CCC2(C)C1CCC21CCC(C)(C)C(=O)O1 (stereo not shown) [EM-1389-CS],inhibition at 1 µM,"Table 4′, E^−6",0%
same,inhibition at 0.01 µM,"Table 4′, E^−8",0%
